Among the data in publication PMC10970923, “In Vitro Evaluation of Essential Oils and Saturated Fatty Acids for Repellency against the Old-World Sand Fly, Phlebotomus papatasi (Scopoli) (Diptera: Psychodidae)” (Insects, 2024) are remaining activity values, retold here.

This assay deals with T1, rPpAChE1 (recombinant acetylcholinesterase of P. papatasi) (Phlebotomus papatasi, UniProt M1F887).
T1 construct: gene AChE
Description: residual AChE activity from initial velocities. The assay is classed as biochemical. An excerpt:
residual AChE activity from initial velocities on rPpAChE1 (recombinant acetylcholinesterase of P. papatasi)

Where two headings read alike, the source gives them in different places.

T1 sequence (M1F887 41-710): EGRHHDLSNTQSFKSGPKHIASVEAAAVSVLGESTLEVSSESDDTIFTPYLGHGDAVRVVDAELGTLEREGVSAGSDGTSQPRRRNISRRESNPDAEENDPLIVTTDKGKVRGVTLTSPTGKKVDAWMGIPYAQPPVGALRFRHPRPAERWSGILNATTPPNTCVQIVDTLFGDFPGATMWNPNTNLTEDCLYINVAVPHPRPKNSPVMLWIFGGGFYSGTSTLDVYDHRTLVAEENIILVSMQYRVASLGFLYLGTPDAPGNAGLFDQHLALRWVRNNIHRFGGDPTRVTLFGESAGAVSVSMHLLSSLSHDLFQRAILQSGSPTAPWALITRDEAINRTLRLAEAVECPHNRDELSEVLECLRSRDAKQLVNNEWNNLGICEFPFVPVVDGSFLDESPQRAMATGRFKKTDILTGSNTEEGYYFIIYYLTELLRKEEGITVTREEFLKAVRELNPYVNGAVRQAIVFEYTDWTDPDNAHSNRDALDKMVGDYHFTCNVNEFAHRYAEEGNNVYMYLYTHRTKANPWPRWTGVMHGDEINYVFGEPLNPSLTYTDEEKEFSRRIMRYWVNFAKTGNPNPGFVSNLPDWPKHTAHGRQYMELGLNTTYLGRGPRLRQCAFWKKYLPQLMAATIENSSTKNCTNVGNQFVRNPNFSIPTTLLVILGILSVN

For the compound `CCN(CC)C(=O)c1cccc(C)c1` [DEET, N,N-diethyl-m-toluamide], the remaining activity at 1000 µM (read-out: % Residual rPpAChE1 Activity (Compared to No Inhibitor) ± Std. Dev. ^* / DEET) amounted to 93.2 ± 1.4%.
Take `CCCCN(CCC(=O)OCC)C(C)=O` [IR3535]: the remaining activity at 1000 µM (read-out: % Residual rPpAChE1 Activity (Compared to No Inhibitor) ± Std. Dev. ^* / IR3535) was 104 ± 5%.
Consider `CCCCCCCCC(=O)O` [Nonanoic acid], for which the remaining activity at 1000 µM (read-out: % Residual rPpAChE1 Activity (Compared to No Inhibitor) ± Std. Dev. ^* / Nonanoic Acid) was found to be 96 ± 2.3%.
`CCCCCCCCCCC(=O)O` [Undecanoic acid]: for the setting “read-out: % Residual rPpAChE1 Activity (Compared to No Inhibitor) ± Std. Dev. ^* / Undecanoic Acid”, the remaining activity at 1000 µM worked out at 98.2 ± 0.4%.
